From US20240261312A1 (priority 2021, published 2024)
Values joined by “and” are separate entries in the source; they are usually repeats but may differ in a detail not shown here. Equal values may be shown once. Read-outs that look alike come from different tables or passages of the source.

Experiments:
bovine coronavirus (BCV) = type: cell-based; conditions: HRT cells, therapeutic
[1] = system: bovine viral diarrhea virus (BVDV); type: cell-based; conditions: MDBK cells, 48-h time point
[2] = system: bovine viral diarrhea virus (BVDV); type: cell-based; conditions: 30 min preincubation, 0.1 to 1.0 ug/ml oleandrin
rhinovirus = assay: Antiviral activity against rhinovirus; type: cell-based; conditions: concentrations and assays employed herein
[3] = system: Human adenovirus (HAdv-C5); assay: Antiviral activity against human adenovirus; type: cell-based
dengue fever virus = assay: Antiviral activity against dengue fever virus; type: cell-based
[4] = system: Omsk hemorrhagic fever virus; type: cell-based
[5] = system: Kyasanur forest disease virus; type: cell-based
[6] = system: Alkhuma hemorrhagic fever virus; type: cell-based
HRT cells = conditions: concentrations of up to 1.0 microg/mL
MDBK cells = conditions: concentrations of up to 1.0 microg/mL
MARC 145 cells = conditions: concentrations of up to 1.0 microg/mL
BT cells = conditions: concentrations of up to 1.0 microg/mL
cells = conditions: up to concentrations of 1 microg/mL
murine coronavirus = conditions: reported; cited from earlier work
[7] = cited from earlier work
[8] = cited from earlier work; remark: listed apart in the source
[9] = in horses; cited from earlier work
[10] = in adult dogs; cited from earlier work
[11] = in turkeys; cited from earlier work
[12] = in cats; cited from earlier work

**Q.** What does the source list for `CO[C@H]1C[C@H](O[C@H]2CC[C@@]3(C)[C@H](CC[C@@H]4[C@@H]3CC[C@]3(C)[C@@H](C5=CC(=O)OC5)[C@@H](OC(C)=O)C[C@]43O)C2)O[C@@H](C)[C@@H]1O` [oleandrin]?
**A.** concentration range over which efficacious (bovine coronavirus (BCV)): ≥ 0.01 µg/mL; reduction of viral infectivity relative to control [1]: 98-100%; inhibition of infectivity of progeny [2]: 85-93%; antiviral activity (inhibition of viral replication) (rhinovirus): inactive; antiviral activity [3]: inactive; antiviral activity (dengue fever virus): inactive; antiviral activity [4]: inactive; antiviral activity [5]: inactive; antiviral activity [6]: inactive; toxicity to HRT cells (HRT cells): not toxic; toxicity to MDBK cells (MDBK cells): not toxic; toxicity to MARC 145 cells (MARC 145 cells): not toxic; toxicity to BT cells (BT cells): not toxic; toxicity by release of lactate dehydrogenase (cells): no additional toxicity over control vehicle; antiviral activity (murine coronavirus): inactive

**Q.** With `C[C@H]1O[C@@H](O[C@H]2[C@@H](O)C[C@H](O[C@H]3[C@@H](O)C[C@H](O[C@H]4CC[C@@]5(C)[C@H](CC[C@@H]6[C@@H]5C[C@@H](O)[C@]5(C)[C@@H](C7=CC(=O)OC7)CC[C@]65O)C4)O[C@@H]3C)O[C@@H]2C)C[C@H](O)[C@@H]1O` [digoxin] as the compound, how does the half-life ([7]; in calves) read?
**A.** 5 to 7 h

**Q.** What about the half-life ([7]; in cattle) of the same compound?
**A.** 7 to 9 h

**Q.** And the half-life ([8]; in ewes and lambs)?
**A.** 13 to 15 h

**Q.** What about the half-life ([8]; in sheep) of the same compound?
**A.** 7 to 8 h

**Q.** And the half-life [9]?
**A.** 16 to 18 h and 10 to 23 h

**Q.** What about the half-life [10] of the same compound?
**A.** 4 to 6 h

**Q.** What about the half-life [11] of the same compound?
**A.** 10 to 12 h

**Q.** What about the half-life [12] of the same compound?
**A.** 9 to 12 h
